Values joined by “and” are separate entries in the source; they are usually repeats but may differ in a detail not shown here. Equal entries are not always repeated.
Key:
[1] = test system: MV4-11 i.v. in BALB/cA Rag2-/-γc-/- mice; test: Intravenous xenograft model (survival, CD11b in blood, body weight); format: in vivo, mouse; settings: for body weight of mice: intravenous MV4-11 AML mouse model, individual mice
Experimental: (§1) The human AML MV4-11 and MOLM-13 xenograft mice models were generated by intravenous (i.v.) injection of 10 × 10^6 (MV4-11) or 1 × 10^4 (MOLM-13) cells diluted in 100 µL of saline solution in the tail vein of a 6-8-week-old female BALB/cA Rag2^−/−γc^−/− mice (n = 10). Treatment started 7 or 1 day after MV4-11 or MOLM-13 cells injection, respectively. MV4-11 and MOLM-13 mice were treated with i.p. 10 mg/kg of CM-444 and CM-1758 during 5 consecutive days followed by 2 resting days for 7 and 2 weeks, respectively. The control group received only 80% saline solution, 10% DMSO and 10% Tween 20 (diluents of CM-444 and CM-1758). The mice weight was controlled and remained stable during the treatment. Statistical results were calculated using the statistical software Medcalc. CD11b levels in blood samples from an intravenous MV4-11 mice model were measured by flow cytometry, as described above.

[2] = test system: MOLM-13 i.v. in BALB/cA Rag2-/-γc-/- mice; test: as above; format: in vivo, mouse; settings: for Body weight: intravenous MOLM-13 AML mouse model, individual mice
Experimental: as §1

Cytotoxicity (LC50) = format: cell-based; settings: human, THLE-2 cells (immortalized liver cell line, ATCC CRL-2706)
[3] = test system: global 5-methylcytosine levels in HL-60, ML-2, MV4-11 and MOLM-13 cell lines; test: Dot blot; format: cell-based, human; settings: HL-60, 270 nM CM-444 or 300 nM CM-1758, 48 h
Experimental: DNA purity and concentration were measured using a NanoDrop spectrophotometer (Thermo Scientific). A 500 ng amount of genomic DNA was loaded onto a nitrocellulose membrane (Amersham Hybond_N+, RPN203B, GE Healthcare), pre-wetted in 6X SSC for 10 min, using the Bio-Dot microfiltration apparatus (Cat No 170-6545, Bio-Rad) following the manufacturer’s instructions. Next, the membrane was incubated with 2X SSC for 5 min and cross-linked for 2 h at 80 °C. The membrane, after being blocked with Tropix I-block blocking reagent (Cat No AI300, Tropix) in PBS with 0.1% Tween 20 and 0.02 NaN3, was incubated with the primary antibody against 5-methylcytosine (monoclonal antibody 5-methylcytidine, Cat No BI-MECY-1000, Eurogentec) diluted 1:4000 o/n at 4 °C and then with alkaline phosphatase-conjugated secondary antibody. […] To ensure equal loading of total DNA on the membrane, the same blot was stained with 0.02% methylene blue in 0.3 M sodium acetate (pH 5.2).

ML-2 = test: q-RT-PCR of MYC, CDKN2A, CDKN1A, GATA2, TAL1, CEBPA, SPI1; format: cell-based, human
Experimental: (§2) RNA was extracted with TRIzol Reagent (Invitrogen) according to the manufacturer’s instructions. First, cDNA was synthesized from 1 µg of total RNA using the PrimeScript RT reagent Kit (Perfect Real Time) (Cat No RR037A, TaKaRa) following the manufacturer’s instructions. The quality of cDNA was checked by a multiplex PCR that amplifies PBGD, ABL, BCR and β2-MG genes. […] The following program conditions were used for the q-PCR: 50 °C for 2 min, 95 °C for 60 s following by 45 cycles at 95 °C for 15 s and 60 °C for 60 s; melting program, one cycle at 95 °C for 15 s, 40 °C for 60 s, and 95 °C for 15 s. The relative expression of each gene was quantified by the […] method using the gene GUS as an endogenous control. The sequence of primers used can be found in Supplementary Table 10.

MOLM-13 = test: as above; format: cell-based, human
Experimental: as §2

HL-60 = test: as above; format: cell-based, human
Experimental: as §2

MV4-11 = test: as above; format: cell-based, human
Experimental: as §2

[4] = ML-2, replicates 1-3 (Figure 2E)
[5] = ML-2, replicates 1-3 (Figure 2G)
[6] = ML-2 treated daily for 48 h, replicates (Fig 6G)
[7] = MOLM-13, daily treatment for 48 h, replicates 1-3
[8] = HL-60, replicates 1-3 (Figure 2E)
[9] = HL-60, replicates 1-3 (Figure 2G)
[10] = HL-60 treated daily for 48 h, replicates (Fig 6F)
[11] = MV4-11, daily treatment for 48 h, replicates 1-3

COc1cc2nc(-c3cc(C)oc3C)cc(NCC3CCN(c4ncc(C(=O)NO)cn4)CC3)c2cc1OC [CM-1758, 2-[4-[[[2-(2,5-dimethyl-3-furyl)-6,7-dimethoxy-4-quinolyl]amino]methyl] -1-piperidyl]pyrimidine-5-carbohydroxamic acid]
CD11b in blood samples ([1]; MV4-11 i.v., 10 mg/kg i.p.): statistically significant increase in CD11b | overall survival (OS) ([1]; MV4-11 i.v., 10 mg/kg i.p., 5 days on/2 off, 7 weeks): increased overall survival | body weight of mice ([1]; day 20, in g (unit assumed)): 25 and 24.9 and 24 and 26.8 and 24.5 and 23.3 and 20.4 and 22.9 and 24.6 and 23.8 and 22.8 and 23 | body weight of mice ([1]; day 23, in g (unit assumed)): 23.9 and 24.6 and 28.5 and 27.5 and 23.5 and 23 and 19.4 and 23.1 and 23.8 and 22.2 and 22.5 and 22.4 | body weight of mice ([1]; day 25): 23.7 (2×) and 23.8 and 27.9 and 26.9 and 23.2 and 22.7 and 19.6 and 22.8 and 21.9 and 22.2 and 22 | body weight of mice ([1]; day 28): 23.6 (2×) and 23.8 and 26.5 and 26.6 and 23.2 and 23.1 and 18.9 and 21.4 and 21.2 and 21.7 | body weight of mice ([1]; day 30): 23.1 and 23.9 and 25.7 and 26.6 and 22.3 and 22.6 (2×) and 18.6 and 21 (2×) and 22.1 | body weight of mice ([1]; day 31): 23.5 and 22.8 and 25.9 and 26.7 and 22.3 and 22.1 (2×) and 18.3 and 21.8 and 21.3 and 17.9 | body weight of mice ([1]; day 35, in g (unit assumed)): 24 and 22.9 and 26.1 and 26.8 and 22.4 and 23.1 and 19.4 and 22.5 and 22 and 22.1 | body weight of mice ([1]; day 37): 23.4 and 24.4 (2×) and 27.2 and 26.3 and 22.9 and 18.3 and 23.1 and 22 and 22.7 | body weight of mice ([1]; day 42, in g (unit assumed)): 25.8 and 24.7 and 28.1 and 26.1 and 23.8 and 24.5 and 20.5 and 23.3 | body weight of mice ([1]; day 44, in g (unit assumed)): 26 and 25.3 and 28.3 | CD11b levels in blood samples ([1]; mice engrafted intravenously with MV4-11 cells, individual mice (Fig 3E)): 26.3% and 16.2% and 21.1% and 11.9% and 23.1% and 11% and 20.5% | Survival time (Kaplan-Meier, event = 1) ([1]; mice engrafted with MV4-11 cells intravenously, individual mice (Fig 3D)): 25 days and 32 days and 46 days and 48 days and 53 days and 57 days | overall survival (OS) ([2]; MOLM-13 i.v., 10 mg/kg i.p., 5 days on/2 off, 2 weeks): not having observed an increase in OS | Body weight ([2]; day 4): 25.4 and 23.9 (2×) and 24.4 and 22.7 (2×) and 23.8 and 21.5 and 23 and 21.9 | Body weight ([2]; day 6): 25.4 and 23 and 24.3 and 22 and 22.6 and 21.4 and 22.8 (2×) and 22.1 and 22.4 | Body weight ([2]; day 8, in g (unit assumed)): 24.7 and 22.7 and 23.8 and 22.6 and 21.8 and 21.7 and 22.1 and 21.9 and 22 and 22.8 | Body weight ([2]; day 11): 24.3 and 22.3 and 23.6 and 21.6 and 21.7 (2×) and 20.7 and 21 and 21.5 and 22.6 | Body weight ([2]; day 13): 24.3 and 22.6 and 23.5 and 21.5 (2×) and 22.1 and 21.4 and 21.9 and 21.7 and 22.4 | CC50 (Cytotoxicity (LC50)): 779 nM | 5mC level (dot blot) [3]: no changes | q-PCR of CDKN1A (p21), log10 (2-ΔΔCt) (ML-2; [4]): 1.727 and 1.688 and 1.928 | q-PCR of CDKN2A (p16), log10 (2-ΔΔCt) (ML-2; [4]): 0.7127 and 0.6825 and 0.5556 | q-PCR of MYC, log10 (2-ΔΔCt) (ML-2; [4]): -0.9587 and -1.237 and -1.248 | q-PCR of CEBPA, log10 (2-ΔΔCt) (ML-2; [5]): 1.926 and 1.786 and 1.671 | q-PCR of GATA2, log10 (2-ΔΔCt) (ML-2; [5]): 2.013 and 1.996 and 2.475 | q-PCR of SPI1 (PU.1), log10 (2-ΔΔCt) (ML-2; [5]): 0.4833 and 0.5215 and 0.7318 | q-PCR of TAL1 (SCL), log10 (2-ΔΔCt) (ML-2; [5]): 1.453 and 1.626 and 1.68 | q-PCR of CEBPA (ML-2; [6]): 1.831 log10 (2-ΔΔCt) and 1.961 log10 (2-ΔΔCt) and 2.004 log10 (2-ΔΔCt) | q-PCR of GATA2 (ML-2; [6]): 1.288 log10 (2-ΔΔCt) and 1.216 log10 (2-ΔΔCt) and 1.319 log10 (2-ΔΔCt) | q-PCR of MYC (ML-2; [6]): -0.6622 log10 (2-ΔΔCt) and -0.5247 log10 (2-ΔΔCt) and -0.8222 log10 (2-ΔΔCt) | q-PCR of SPI1 (ML-2; [6]): 0.8685 log10 (2-ΔΔCt) and 0.5818 log10 (2-ΔΔCt) and 0.6427 log10 (2-ΔΔCt) | q-PCR of TAL1 (ML-2; [6]): 1.398 log10 (2-ΔΔCt) and 0.9599 log10 (2-ΔΔCt) and 0.8228 log10 (2-ΔΔCt) | q-PCR of CEBPA, log10 (2-ΔΔCt) (MOLM-13; [7]): 2.72 and 2.6188 and 2.826 | q-PCR of GATA2, log10 (2-ΔΔCt) (MOLM-13; [7]): 1.088 and 1.1424 and 1.015 | q-PCR of MYC, log10 (2-ΔΔCt) (MOLM-13; [7]): -0.6216 and -0.5326 and -0.5822 | q-PCR of SPI1, log10 (2-ΔΔCt) (MOLM-13; [7]): 0.02692 and 0.258 and 0.1525 | q-PCR of TAL1, log10 (2-ΔΔCt) (MOLM-13; [7]): 1.716 and 1.83 and 1.719 | CDKN1A log10 (2-ΔΔCt) (MOLM-13; MOLM-13, q-PCR): 0.1026 and 0.1237 and 0.1127 | CDKN2A log10 (2-ΔΔCt) (MOLM-13; MOLM-13, q-PCR): 1.026 and 0.9216 and 0.9282 | GATA2 log10 (2-ΔΔCt) (MOLM-13; MOLM-13, q-PCR): 0.5214 and 0.4825 and 0.3541 | MYC log10 (2-ΔΔCt) (MOLM-13; MOLM-13, q-PCR): -0.9936 and -0.8825 and -0.8494 | SPI1 log10 (2-ΔΔCt) (MOLM-13; MOLM-13, q-PCR): 0.02258 and 0.0358 and 0.04789 | TAL1 log10 (2-ΔΔCt) (MOLM-13; MOLM-13, q-PCR): 1.37 and 1.426 and 1.336 | q-PCR of CDKN1A (p21), log10 (2-ΔΔCt) (HL-60; [8]): 1.37 and 1.926 and 1.271 | q-PCR of CDKN2A (p16), log10 (2-ΔΔCt) (HL-60; [8]): 0.4933 and 0.5726 and 0.5849 | q-PCR of MYC, log10 (2-ΔΔCt) (HL-60; [8]): -0.8313 and -0.6255 and -0.6597 | q-PCR of CEBPA, log10 (2-ΔΔCt) (HL-60; [9]): 0.9022 and 0.7826 and 0.9863 | q-PCR of GATA2, log10 (2-ΔΔCt) (HL-60; [9]): 0.6526 and 0.7826 and 0.7794 | q-PCR of SPI1 (PU.1), log10 (2-ΔΔCt) (HL-60; [9]): 0.3258 and 0.4025 and 0.5101 | q-PCR of TAL1 (SCL), log10 (2-ΔΔCt) (HL-60; [9]): 0.0125 and 0.0025 and -0.00845 | q-PCR of CEBPA (HL-60; [10]): 1.657 log10 (2-ΔΔCt) and 1.235 log10 (2-ΔΔCt) and 2.096 log10 (2-ΔΔCt) | q-PCR of GATA2 (HL-60; [10]): 0.5314 log10 (2-ΔΔCt) and 0.9421 log10 (2-ΔΔCt) and 0.9001 log10 (2-ΔΔCt) | q-PCR of MYC (HL-60; [10]): -0.7182 log10 (2-ΔΔCt) and -0.6003 log10 (2-ΔΔCt) and -0.8615 log10 (2-ΔΔCt) | q-PCR of SPI1 (HL-60; [10]): 0.5322 log10 (2-ΔΔCt) and 0.69 log10 (2-ΔΔCt) and 0.7959 log10 (2-ΔΔCt) | q-PCR of TAL1 (HL-60; [10]): 1.7134 log10 (2-ΔΔCt) and 1.966 log10 (2-ΔΔCt) and 2.209 log10 (2-ΔΔCt) | q-PCR of CEBPA, log10 (2-ΔΔCt) (MV4-11; [11]): 1.278 and 1.212 and 1.279 | q-PCR of GATA2, log10 (2-ΔΔCt) (MV4-11; [11]): 2.088 and 2.042 and 2.015 | q-PCR of MYC, log10 (2-ΔΔCt) (MV4-11; [11]): -0.6051 and -0.8193 and -0.727 | q-PCR of SPI1, log10 (2-ΔΔCt) (MV4-11; [11]): 0.513 and 0.595 and 0.5328 | q-PCR of TAL1, log10 (2-ΔΔCt) (MV4-11; [11]): 0.8637 and 0.6983 and 1.049 | CDKN1A log10 (2-ΔΔCt) (MV4-11; MV4-11, q-PCR): 0.6259 and 0.6326 and 0.6646 | CDKN2A log10 (2-ΔΔCt) (MV4-11; MV4-11, q-PCR): 0.8926 and 0.6026 and 0.7418 | CEBPA log10 (2-ΔΔCt) (MV4-11; MV4-11, q-PCR): 1.982 and 1.782 and 1.913 | MYC log10 (2-ΔΔCt) (MV4-11; MV4-11, q-PCR): -0.7926 and -0.6522 and -0.726 | SPI1 log10 (2-ΔΔCt) (MV4-11; MV4-11, q-PCR): 0.2626 and 0.2252 and 0.159 | TAL1 log10 (2-ΔΔCt) (MV4-11; MV4-11, q-PCR): 0.5124 and 0.5 and 0.5901
